Assay results as given in ChEMBL document CHEMBL2203009, “Synthesis of isoindole and benzoisoindole derivatives of teicoplanin pseudoaglycon with remarkable antibacterial and antiviral activities” (Bioorg Med Chem Lett, 2012).
In brackets after ≈: the same amount, converted by molar mass.

Tests used:
[1] = test system: Human alphaherpesvirus 2; assay: Antiviral activity against HSV2 G infected in HEL cells assessed as inhibition of virus-induced cytopathic effect; format: functional, organism-based; details: Human alphaherpesvirus 2, strain G
[2] = test system: Bacillus subtilis; assay: Antimicrobial activity against Bacillus subtilis ATCC 6633; format: functional
[3] = Toxicity in MDCK cells assessed as induction of cell morphology changes; format: cell-based, Canis lupus familiaris; details: dog
[4] = test system: Staphylococcus epidermidis; assay: Antimicrobial activity against Staphylococcus epidermidis over-expressing MecA; format: functional
[5] = test system: Vaccinia virus; assay: Antiviral activity against Vaccinia virus infected in HEL cells assessed as inhibition of virus-induced cytopathic effect; format: functional, organism-based; details: Orthopoxvirus vaccinia
[6] = test system: Human alphaherpesvirus 1; assay: Antiviral activity against thymidine kinase deficient and acyclovir-resistant HSV1 KOS infected in HEL cells assessed as inhibition of virus-induced cytopathic effect; format: functional, organism-based; details: Human alphaherpesvirus 1, KOS
[7] = test system: H3N2 subtype; assay: Antiviral activity against Influenza A virus (A/Hong Kong/7/1987(H3N2)) […] infected in MDCK cells assessed as inhibition of virus-induced cytopathic effect; format: functional, organism-based
[8] = test system: Enterococcus faecalis; assay: Antimicrobial activity against Enterococcus faecalis 15376 over-expressing vanA; format: functional
[9] = test system: Vesicular stomatitis virus; assay: Antiviral activity against Vesicular stomatitis virus infected in HEL cells assessed as inhibition of virus-induced cytopathic effect; format: functional, organism-based
[10] = test system: Human alphaherpesvirus 1; assay: Antiviral activity against HSV1 KOS infected in HEL cells assessed as inhibition of virus-induced cytopathic effect; format: functional, organism-based; details: Human alphaherpesvirus 1, KOS
[11] = test system: Staphylococcus aureus; assay: Antimicrobial activity against methicillin-sensitive Staphylococcus aureus ATCC 29213; format: functional
[12] = test system: Influenza B virus; assay: Antiviral activity against Influenza B virus (B/Hong Kong/05/1972) […] infected in MDCK cells assessed as inhibition of virus-induced cytopathic effect; format: functional, cell-based; details: B/Hong Kong/05/1972, MDCK
[13] = test system: Staphylococcus epidermidis; assay: Antimicrobial activity against Staphylococcus epidermidis ATCC 35984 biofilms; format: functional
[14] = test system: Enterococcus faecalis; assay: Antimicrobial activity against Enterococcus faecalis ATCC 51299 over-expressing vanB; format: functional
[15] = Toxicity in HEL cells assessed as induction of cell morphology changes; format: cell-based; details: human
[16] = test system: Staphylococcus aureus; assay: Antimicrobial activity against methicillin-resistant Staphylococcus aureus ATCC 33591; format: functional
[17] = test system: Enterococcus faecalis; assay: Antimicrobial activity against Enterococcus faecalis ATCC 29212; format: functional
[18] = test system: Influenza A virus; assay: Antiviral activity against Influenza A virus (A/Puerto Rico/8/1934(H1N1)) H1N1 infected in MDCK cells assessed as inhibition of virus-induced cytopathic effect; format: functional, organism-based

Row | SMILES | EC50 [1] [µM] | EC50 [5] [µM] | EC50 [6] [µM] | EC50 [7] [µM] | EC50 [9] [µM] | EC50 [10] [µM] | EC50 [12] [µM] | MCC [15] [µM] | EC50 [18] [µM] | further results
1 | CC(=O)N[C@H]1[C@H](O[C@@H]2c3ccc(c(Cl)c3)Oc3cc4cc(c3O)Oc3ccc(cc3Cl)C[C@H]3NC(=O)[C@H](n5cc6ccccc6c5S[C@@H]5O[C@H](CO)[C@@H](O)[C@H](O)[C@H]5O)c5ccc(O)c(c5)Oc5cc(O)cc(c5)[C@H](NC3=O)C(=O)N[C@H]4C(=O)N[C@H]3C(=O)N[C@@H]2C(=O)N[C@H](C(=O)O)c2cc(O)cc(O)c2-c2cc3ccc2O)O[C@H](CO)[C@@H](O)[C@@H]1O | 40 | 45 | ≥ 45 | > 100 | 52 | 45 | > 100 | ≥ 100 | > 100 | MBC [2]: 1 µg/mL (≈ 0.589 µM); MIC [2]: 0.125 µg/mL (≈ 0.0737 µM); MCC [3]: < 0.8 µM; MBC [4]: 32 µg/mL (≈ 18.9 µM); MIC [4]: 0.015 µg/mL (≈ 0.00884 µM); MBC [8]: 256 µg/mL (≈ 151 µM); MIC [8]: 0.0625 µg/mL (≈ 0.0368 µM); MBC [11]: 1 µg/mL (≈ 0.589 µM); MIC [11]: 0.0313 µg/mL (≈ 0.0185 µM); MBC [13]: 0.5 µg/mL (≈ 0.295 µM); MIC [13]: 0.0075 µg/mL (≈ 0.00442 µM); MBC [14]: 256 µg/mL (≈ 151 µM); MIC [14]: 1 µg/mL (≈ 0.589 µM); MBC [16]: 1 µg/mL (≈ 0.589 µM); MIC [16]: 0.0075 µg/mL (≈ 0.00442 µM); MBC [17]: 256 µg/mL (≈ 151 µM); MIC [17]: 2 µg/mL (≈ 1.18 µM)
2 | CC(=O)N[C@@H]1[C@H](Oc2c3cc4cc2Oc2ccc(cc2Cl)[C@@H](O[C@@H]2O[C@@H](CO)[C@@H](O)[C@H](O)[C@@H]2NC(C)=O)[C@@H]2NC(=O)[C@H](NC(=O)[C@@H]4NC(=O)[C@H]4NC(=O)[C@@H](Cc5ccc(c(Cl)c5)O3)NC(=O)[C@H](N)c3ccc(O)c(c3)Oc3cc(O)cc4c3)c3ccc(O)c(c3)-c3c(O[C@H]4O[C@H](CO)[C@@H](O)[C@@H](O)[C@@H]4O)cc(O)cc3[C@@H](C(=O)O)NC2=O)O[C@@H](CO)[C@@H](O)[C@@H]1O | – | – | – | – | – | – | – | – | – | MBC [2]: 16 µg/mL (≈ 9.05 µM); MIC [2]: 0.5 µg/mL (≈ 0.283 µM); MBC [4]: 32 µg/mL (≈ 18.1 µM); MIC [4]: 8 µg/mL (≈ 4.53 µM); MBC [8]: 256 µg/mL (≈ 145 µM); MIC [8]: 256 µg/mL (≈ 145 µM); MBC [11]: 2 µg/mL (≈ 1.13 µM); MIC [11]: 0.5 µg/mL (≈ 0.283 µM); MBC [13]: 16 µg/mL (≈ 9.05 µM); MIC [13]: 2 µg/mL (≈ 1.13 µM); MBC [14]: 256 µg/mL (≈ 145 µM); MIC [14]: 4 µg/mL (≈ 2.26 µM); MBC [16]: 2 µg/mL (≈ 1.13 µM); MIC [16]: 0.5 µg/mL (≈ 0.283 µM); MBC [17]: 64 µg/mL (≈ 36.2 µM); MIC [17]: 2 µg/mL (≈ 1.13 µM)
3 | Nc1nc2c(ncn2COCCO)c(=O)[nH]1 [ACYCLOVIR] | 0.14 | ≥ 250 | 44 | – | > 250 | 0.14 | – | > 250 | – | –
4 | CC(=O)N[C@H]1[C@H](O[C@@H]2c3ccc(c(Cl)c3)Oc3cc4cc(c3O)Oc3ccc(cc3Cl)C[C@H]3NC(=O)[C@H](N)c5ccc(O)c(c5)Oc5cc(O)cc(c5)[C@H](NC3=O)C(=O)N[C@H]4C(=O)N[C@H]3C(=O)N[C@@H]2C(=O)N[C@H](C(=O)O)c2cc(O)cc(O)c2-c2cc3ccc2O)O[C@H](CO)[C@@H](O)[C@@H]1O | > 100 | > 100 | > 100 | 17 | > 100 | > 100 | > 100 | > 100 | 23 | MCC [3]: ≥ 100 µM
5 | Nc1ccn(C[C@@H](CO)OCP(=O)(O)O)c(=O)n1 [CIDOFOVIR] | 0.9 | 21 | 1.5 | – | > 250 | 1.5 | – | > 250 | – | –
6 | Nc1nc2c(ncn2COC(CO)CO)c(=O)[nH]1 [GANCICLOVIR] | 0.013 | > 100 | 4 | – | > 100 | 0.015 | – | > 100 | – | –
7 | NC(=O)c1ncn([C@@H]2O[C@H](CO)[C@@H](O)[C@H]2O)n1 [RIBAVIRIN] | – | – | – | 6 | – | – | 4.6 | – | 6.1 | –
8 | O=c1[nH]c(=O)n([C@H]2C[C@H](O)[C@@H](CO)O2)cc1/C=C/Br [BRIVUDINE] | 198 | 10 | 50 | – | > 250 | 0.024 | – | > 250 | – | –
